Data from ChEMBL document CHEMBL4007454 (J Med Chem, 2017).

Columns and labels:
[1] = test system: MDR1 (human); assay: Apparent permeability in pig LLC-PK1 cells expressing human MDR1; format: ADME, cell-based, Sus scrofa
[2] = Efflux ratio of permeability […] in pig LLC-PK1 cells expressing rat MDR1; format: ADME, cell-based, Sus scrofa
[3] = Efflux ratio of permeability […] in pig LLC-PK1 cells expressing human MDR1; format: ADME, cell-based, Sus scrofa
[4] = target: T1, Leucine-rich repeat serine/threonine-protein kinase 2 (Homo sapiens, UniProt Q5S007, G2019S); assay: Inhibition of recombinant human GST-tagged LRRK2 (970 to 2527 residues) G2019S mutant expressed in baculovirus using fluorescein-ERM as substrate preincubated for 30 mins followed by substrate addition measured after 1 hr by TR-FRET assay
T1 sequence (Q5S007 whole entry G2019S, the tested form may be a part): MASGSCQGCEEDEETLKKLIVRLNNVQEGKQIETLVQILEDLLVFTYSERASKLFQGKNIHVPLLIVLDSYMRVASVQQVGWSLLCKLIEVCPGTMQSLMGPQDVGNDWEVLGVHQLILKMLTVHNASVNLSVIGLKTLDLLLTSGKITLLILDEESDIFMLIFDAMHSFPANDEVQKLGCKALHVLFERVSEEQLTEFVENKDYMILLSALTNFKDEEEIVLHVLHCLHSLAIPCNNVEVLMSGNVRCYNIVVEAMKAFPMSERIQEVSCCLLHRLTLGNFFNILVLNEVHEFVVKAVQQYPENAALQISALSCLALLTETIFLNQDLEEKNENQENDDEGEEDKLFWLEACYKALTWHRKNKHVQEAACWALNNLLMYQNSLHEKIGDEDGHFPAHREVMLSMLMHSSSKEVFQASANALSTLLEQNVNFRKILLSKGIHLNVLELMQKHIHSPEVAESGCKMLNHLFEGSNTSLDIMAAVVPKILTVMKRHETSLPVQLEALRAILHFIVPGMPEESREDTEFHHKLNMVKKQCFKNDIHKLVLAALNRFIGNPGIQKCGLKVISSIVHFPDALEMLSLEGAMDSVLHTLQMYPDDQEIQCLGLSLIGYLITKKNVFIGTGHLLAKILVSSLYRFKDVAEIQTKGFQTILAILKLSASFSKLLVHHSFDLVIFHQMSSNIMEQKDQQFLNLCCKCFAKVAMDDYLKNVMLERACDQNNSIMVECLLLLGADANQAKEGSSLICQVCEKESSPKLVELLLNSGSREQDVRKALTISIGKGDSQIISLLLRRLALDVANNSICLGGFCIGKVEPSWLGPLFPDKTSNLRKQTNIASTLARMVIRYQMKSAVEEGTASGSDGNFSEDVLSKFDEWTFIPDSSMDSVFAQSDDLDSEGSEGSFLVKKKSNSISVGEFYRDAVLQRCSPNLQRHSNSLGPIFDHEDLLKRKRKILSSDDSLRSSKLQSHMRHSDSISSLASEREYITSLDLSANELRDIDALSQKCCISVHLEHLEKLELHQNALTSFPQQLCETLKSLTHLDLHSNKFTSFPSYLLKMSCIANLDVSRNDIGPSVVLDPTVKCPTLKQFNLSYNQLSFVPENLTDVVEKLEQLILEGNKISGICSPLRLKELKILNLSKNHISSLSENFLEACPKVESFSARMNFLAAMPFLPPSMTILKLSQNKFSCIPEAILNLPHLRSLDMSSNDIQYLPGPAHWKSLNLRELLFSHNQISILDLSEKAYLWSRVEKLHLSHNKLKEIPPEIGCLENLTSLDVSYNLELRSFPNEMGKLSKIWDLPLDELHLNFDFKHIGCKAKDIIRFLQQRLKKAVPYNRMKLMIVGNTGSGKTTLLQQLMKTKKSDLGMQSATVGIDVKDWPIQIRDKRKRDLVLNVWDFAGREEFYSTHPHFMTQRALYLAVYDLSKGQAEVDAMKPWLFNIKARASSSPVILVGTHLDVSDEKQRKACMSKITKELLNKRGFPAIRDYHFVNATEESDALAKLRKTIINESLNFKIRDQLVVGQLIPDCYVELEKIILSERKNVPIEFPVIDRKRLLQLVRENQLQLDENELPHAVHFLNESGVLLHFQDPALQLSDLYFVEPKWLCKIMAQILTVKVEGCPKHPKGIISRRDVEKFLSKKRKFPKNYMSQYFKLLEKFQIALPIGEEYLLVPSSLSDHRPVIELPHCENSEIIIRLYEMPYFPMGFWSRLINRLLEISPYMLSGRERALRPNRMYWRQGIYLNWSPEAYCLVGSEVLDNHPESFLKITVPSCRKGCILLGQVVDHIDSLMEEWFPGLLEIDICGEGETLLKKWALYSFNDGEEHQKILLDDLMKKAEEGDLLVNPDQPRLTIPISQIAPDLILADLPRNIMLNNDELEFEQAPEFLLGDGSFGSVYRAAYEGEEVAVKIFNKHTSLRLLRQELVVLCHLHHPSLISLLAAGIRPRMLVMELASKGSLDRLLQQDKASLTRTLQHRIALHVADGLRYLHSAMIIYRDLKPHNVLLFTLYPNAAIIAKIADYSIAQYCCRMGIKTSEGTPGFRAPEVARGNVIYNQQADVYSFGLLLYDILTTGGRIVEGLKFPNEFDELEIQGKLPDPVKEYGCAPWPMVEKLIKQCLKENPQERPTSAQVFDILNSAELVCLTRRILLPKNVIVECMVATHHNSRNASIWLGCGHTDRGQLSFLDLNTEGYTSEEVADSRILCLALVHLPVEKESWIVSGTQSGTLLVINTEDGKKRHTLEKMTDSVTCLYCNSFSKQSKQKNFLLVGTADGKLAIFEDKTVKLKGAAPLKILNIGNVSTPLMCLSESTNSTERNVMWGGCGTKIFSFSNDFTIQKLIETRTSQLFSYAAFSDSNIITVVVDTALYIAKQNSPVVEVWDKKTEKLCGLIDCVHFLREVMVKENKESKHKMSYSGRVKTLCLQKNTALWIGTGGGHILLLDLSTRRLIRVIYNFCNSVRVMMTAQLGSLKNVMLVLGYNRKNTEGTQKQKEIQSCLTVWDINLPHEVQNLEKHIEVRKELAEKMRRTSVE

[5] = Intrinsic clearance in human hepatocytes assessed per million cells at 1 uM after 180 mins by LC-MS/MS analysis; format: ADME, cell-based, Hepatocyte; conditions: read-out: CLH
[6] = Intrinsic clearance in rat hepatocytes assessed per million cells at 1 uM after 180 mins by LC-MS/MS analysis; format: ADME, cell-based, Hepatocyte; conditions: read-out: CLH
[7] = target: T1, Leucine-rich repeat serine/threonine-protein kinase 2; assay: Inhibition LRRK2 G2019S mutant Ser935 phosphorylation in human SH-SY5Y cells after 90 mins by Western blot analysis; format: cell-based
[8] = target: T2, Dual specificity protein kinase TTK (Homo sapiens) (UniProt P33981); assay: Inhibition of recombinant human full length GST-tagged TTK expressed in baculovirus; conditions: concentration not given here
T2 sequence (whole entry): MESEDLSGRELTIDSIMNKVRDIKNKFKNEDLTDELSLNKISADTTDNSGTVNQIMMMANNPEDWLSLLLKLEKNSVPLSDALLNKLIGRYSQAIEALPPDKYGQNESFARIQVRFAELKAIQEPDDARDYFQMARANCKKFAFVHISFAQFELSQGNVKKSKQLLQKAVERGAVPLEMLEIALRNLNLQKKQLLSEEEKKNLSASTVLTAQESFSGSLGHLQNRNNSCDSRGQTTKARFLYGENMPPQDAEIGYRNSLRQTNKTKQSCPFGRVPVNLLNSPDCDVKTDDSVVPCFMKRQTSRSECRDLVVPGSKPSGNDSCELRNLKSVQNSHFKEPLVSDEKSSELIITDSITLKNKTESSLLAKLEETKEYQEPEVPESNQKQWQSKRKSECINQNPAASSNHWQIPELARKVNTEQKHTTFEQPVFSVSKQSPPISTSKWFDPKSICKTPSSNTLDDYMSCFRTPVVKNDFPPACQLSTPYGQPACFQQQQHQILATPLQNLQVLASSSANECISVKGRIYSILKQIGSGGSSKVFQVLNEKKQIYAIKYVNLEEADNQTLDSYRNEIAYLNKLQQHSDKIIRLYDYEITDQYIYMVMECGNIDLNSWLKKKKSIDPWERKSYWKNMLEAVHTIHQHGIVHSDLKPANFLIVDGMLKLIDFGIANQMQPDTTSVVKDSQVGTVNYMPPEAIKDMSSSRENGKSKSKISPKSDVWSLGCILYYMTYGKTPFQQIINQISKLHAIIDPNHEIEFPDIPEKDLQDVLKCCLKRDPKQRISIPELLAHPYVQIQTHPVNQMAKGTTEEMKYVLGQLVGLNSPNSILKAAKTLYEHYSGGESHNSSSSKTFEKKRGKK

[9] = Half life in Han-Wistar rat at 2 mg/kg, iv measured after 2 to 480 mins by LC-MS/MS analysis; format: ADME, organism-based; conditions: in vivo
[10] = AUC (0 to 8 hrs) in Han-Wistar rat at 2 mg/kg, iv measured after 2 to 480 mins by LC-MS/MS analysis; format: ADME, organism-based; parameters: time < 8 hr, dose 2 mg/kg, route intravenous; conditions: in vivo
[11] = target: Mitogen-activated protein kinase 1 (Homo sapiens) (UniProt P28482); assay: Inhibition of recombinant human full length GST-tagged ERK2 expressed in Escherichia coli at 1 uM
Mitogen-activated protein kinase 1 (Homo sapiens), sequence (P28482 whole entry, the tested form may be a part): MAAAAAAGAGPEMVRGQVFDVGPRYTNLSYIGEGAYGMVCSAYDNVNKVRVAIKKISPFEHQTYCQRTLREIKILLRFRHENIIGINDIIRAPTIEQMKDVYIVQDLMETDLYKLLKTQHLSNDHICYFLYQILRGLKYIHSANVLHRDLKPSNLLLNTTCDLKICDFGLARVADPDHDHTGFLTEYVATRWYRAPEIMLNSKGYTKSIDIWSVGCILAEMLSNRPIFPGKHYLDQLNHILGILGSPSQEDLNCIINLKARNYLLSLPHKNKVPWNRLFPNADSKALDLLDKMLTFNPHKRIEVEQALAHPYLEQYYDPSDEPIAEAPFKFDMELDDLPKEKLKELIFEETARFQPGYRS

[12] = target: T1, Leucine-rich repeat serine/threonine-protein kinase 2; assay: Inhibition of recombinant human GST-tagged LRRK2 (970 to 2527 residues) G2019S mutant expressed in baculovirus using fluorescein-ERM as substrate preincubated for 30 mins followed by substrate addition measured after 1 hr in presence of 5 mM ATP by TR-FRET assay
[13] = test system: Plasma; assay: Unbound plasma concentration in rat at 5 mg/kg, ip; format: ADME, organism-based; conditions: in vivo
[14] = test system: Cerebrospinal fluid; assay: Drug level in rat Cerebrospinal fluid at 5 mg/kg, ip; format: ADME, organism-based; conditions: in vivo, read-out: Drug uptake
[15] = target: Leucine-rich repeat serine/threonine-protein kinase 2 (Homo sapiens, UniProt Q5S007); assay: Inhibition of wild type human recombinant LRRK2 expressed in baculovirus using fluorescein-ERM as substrate preincubated for 30 mins followed by substrate addition measured after 1 hr by TR-FRET assay
Leucine-rich repeat serine/threonine-protein kinase 2 (Homo sapiens, UniProt Q5S007), sequence (Q5S007 whole entry): as the sequence (Q5S007 whole entry G2019S, the tested form may be a part) above, with S2019G counted along it

SMILES	Papp [1] [×10⁻⁶ cm/s]	Ratio [2]	Ratio [3]	IC50 [4] [nM]	hepatocyte CLint at 1 µM [5] [µL/min/1e6 cells]	hepatocyte CLint at 1 µM [6] [µL/min/1e6 cells]	IC50 [7] [nM]	also measured
CC(C)Oc1ccc2[nH]nc(-c3ccnc(N4CCN(C)CC4)c3)c2c1	27	1.7	0.6	0.8	7	36	52	–
CC(C)Oc1ccc2[nH]nc(-c3cc(N4CCOCC4)ncn3)c2c1	38	0.4	0.6	–	6	13	41	–
COCCNc1cc(-c2n[nH]c3ccccc23)ccn1	–	–	–	98	–	–	–	–
c1cncc(-c2n[nH]c3ccccc23)c1	–	–	–	1230	–	–	–	–
O=S(=O)(c1ccc2[nH]nc(-c3ccnc(N4CCOCC4)c3)c2c1)C1CC1	35	44	20	–	7.3	15	–	–
c1ccc2c(-c3ccnc(N4CCOCC4)c3)n[nH]c2c1	19	0.2	0.3	12	–	–	–	–
CC(C)Oc1ccc2[nH]nc(-c3ccnc(N4CCOCC4)c3)c2c1	30	0.7	0.5	0.7	22	49	43	inhibition [8]: 91%; half-life [9]: 1 h; AUC(0-t) at 8 h [10]: 1 µM·h; inhibition [11]: 41%
N#Cc1ccc2[nH]nc(-c3ccnc(N4CCOCC4)c3)c2c1	34	1.3	0.7	64	–	–	–	–
C[C@H]1CN(c2cc(-c3n[nH]c4ccc(OC5(C)CC5)cc34)ncn2)CCO1	27	0.5	0.5	–	7	26	3.8	IC50 [12]: 76 nM
C[C@@H]1CN(c2cc(-c3n[nH]c4ccc(OC5(C)CC5)cc34)ncn2)CCO1	28	0.4	0.3	2	7	15	5	IC50 [12]: 13 nM
c1ccc2c(-c3cncc(N4CCOCC4)c3)n[nH]c2c1	38	0.5	0.4	256	–	–	–	–
CC1(Oc2ccc3[nH]nc(-c4cc(N5CCOCC5)ncn4)c3c2)CC1	35	–	–	–	8	18	–	–
c1ccc2c(-c3cc(N4CCOCC4)ncn3)n[nH]c2c1	–	–	–	–	9	30	–	–
c1cnnc(-c2ccc3[nH]nc(-c4ccnc(N5CCOCC5)c4)c3c2)c1	32	38	16	–	10	6	–	–
c1cc(-c2n[nH]c3ccc(C4CC4)cc23)cc(N2CCOCC2)n1	25	0.1	0.2	13	31	52	–	–
c1ccc2c(-c3ccncc3)n[nH]c2c1	–	–	–	904	–	–	–	–
c1ccc(-c2n[nH]c3ccccc23)nc1	–	–	–	6190	–	–	–	–
COc1ccc2[nH]nc(-c3ccnc(N4CCOCC4)c3)c2c1	33	0.4	0.2	15	23	28	–	–
CC(C)Oc1ccc2[nH]nc(-c3ccnc(N4C[C@@H](F)[C@H](F)C4)c3)c2c1	31	0.7	0.4	6.6	25	39	341	IC50 [12]: 128 nM
CC1(Oc2ccc3[nH]nc(-c4cc(N5CCN(S(C)(=O)=O)CC5)ncn4)c3c2)CC1	30	12	2.2	2.2	–	10	7.6	–
CC(C)Oc1ccc2[nH]nc(-c3ccnc(N4CCN(S(C)(=O)=O)CC4)c3)c2c1	29	0.6	0.4	–	7	32	83	IC50 [12]: 14 nM
c1cc(-c2n[nH]c3ccc(OC4CC4)cc23)cc(N2CCOCC2)n1	31	0.3	0.3	41	37	32	–	–
CN(c1cccc(S(C)(=O)=O)c1)c1ccc2[nH]nc(-c3ccncc3)c2c1	–	–	–	–	–	–	–	Cp(f) [13]: 42 nM; concentration [14]: 36 nM; IC50 [15]: 44 nM
CC(C)Oc1ccc2[nH]nc(-c3ccnc(N4CCC(n5cnnc5)CC4)c3)c2c1	46	41	40	–	2	19	194	IC50 [12]: 69 nM
CC(C)Oc1ccc2[nH]nc(-c3ccnc(N4CCN(C)C(=O)C4)c3)c2c1	38	15	3.2	–	16	38	59	IC50 [12]: 91 nM
Nc1cc(-c2n[nH]c3ccc(Nc4ccccc4)cc23)ccn1	–	–	–	–	–	–	–	IC50 [15]: 728 nM
Cn1cc(-c2ccc3[nH]nc(-c4ccnc(N5CCOCC5)c4)c3c2)cn1	38	6.3	1.5	–	7	31	–	–
